ChEMBL document CHEMBL1131729, “Isolation and synthesis of a novel immunosuppressive 17alpha-substituted dammarane from the flour of the Palmyrah palm (Borassus flabellifer)” (Bioorg Med Chem Lett, 1999)
In brackets after ≈: the same amount, converted by molar mass.

Legend:
[1] = system: Mus musculus; test: Compound was tested […] for immunosuppressive activity in the serum free mixed lymphocyte reaction; format: functional
[2] = system: Mus musculus; test: In vivo immunosuppressive activity in the delayed type hypersensitivity model induced by SRBC-TH cells in mouse after peroral administration; format: functional; settings: po

SMILES	IC50 [1]	ED50 [2]
C=C(C/C=C/C(C)(C)O)[C@@H]1CC[C@]2(C)[C@@H]1CC[C@@H]1[C@@]3(C)CC[C@H](O)C(C)(C)[C@@H]3CC[C@]12C	0.01 µg/mL (≈ 0.0226 µM)	0.04 mg/kg
C=C(C/C=C/C(C)(C)O)[C@H]1CC[C@]2(C)[C@@H]1CC[C@@H]1[C@@]3(C)CC[C@H](O)C(C)(C)[C@@H]3CC[C@]12C	0.8 µg/mL (≈ 1.81 µM)	10 mg/kg
